{"source": "patent EP1670820B1", "about": "“ANTIGENS FOR AN EAST COAST FEVER VACCINE” (International Livestock Research Institute ( ILRI), priority 2003, dated 2005)", "system": "peptide pulsed autologous iSF", "test": "51Chromium release assay: CTL lysis of peptide pulsed autologous iSF", "assay_type": "cell-based, cattle", "details": "autologous iSF pulsed overnight with peptide; BW014 polyclonal CD8+ CTL line (FIG. 9)"}
{"sequence": "SLVCVLMKC [Tp2 peptide 76B]", "values": [{"measurement": "lysis of iSF pulsed with peptide", "value": "background levels of lysis"}]}
